Test results published in patent US8969407B2, “Administration of coumarin, butylated hydroxyanisole and ethoxyquine for the treatment of canities” (L'Oreal, priority 2006, dated 2015).

System: normal human melanocytes (NHM)
Assay: Measurement of reactive oxygen species (ROS) generated by an H2O2 stress in cultured normal human melanocytes
Assay type: cell-based
Settings: NHM pretreated 12 h/18 h at 37° C. with compound; 250 μM H2O2; fluorescence after 15 minutes; FIG. 1
Description: 1-A-1. Protocol for Measuring the Reactive Oxygen Species (ROS) Generated by an H2O2 Stress in Cultured Normal Human Melanocytes (NHM): The normal human melanocytes (NHMs) were inoculated at DO at the density of 4×10^4 cells/cm^2. At D1, the culture medium was replaced with the 10 μM solution of 6-carboxy-2',7'-dichlorodihydrofluorescein diacetate, di[acetoxymethyl ester] in PBS (H2DCFDA, C2938, Molecular Probes). After 20 minutes, the H2DCFDA solution was replaced with the culture medium. The NHMs were left for 30 minutes before adding the H2O2 solution (250 μM). The fluorescence was measured after 15 minutes in a fluoroscan (excitation: 485 nm, emission: 538 nm). The compounds studied were used depending on their properties (concentration, preincubation time). N-Acetylcysteine ([…]-Sigma) was used as a reference molecule. The melanocytes were pretreated, 12 h/18 h at 37° C., with the compound studied in the culture medium, before being brought into contact for 20 minutes with H2DCFDA (10 μM in PBS). […] The fluorescence was measured after 15 minutes in a fluoroscan (excitation: 485 nm, emission: 538 nm). The results represent the crude fluorescence data, from which the autofluorescence values of “blank” cells, expressed in fluorescence units (fu), obtained during a representative experiment, have been deducted.

SMILES: CCOc1ccc2c(c1)C(C)=CC(C)(C)N2 [ethoxyquine, 6-ethoxy-2,2,4-trimethyl-1H-quinoline]
- ROS induced by H2O2 (H2DCFDA fluorescence): decrease of the reactive oxygen species
